“Also recorded” adds a separate entry of the source. Blank lines part the entries; values can stand above or below the molecule they belong to.
Legend:
PDHK2-Y320F [1] = target: T1, PDHK2-Y320F (Rattus norvegicus, UniProt Q64536, Y328F); test: ATP, ADP and DCA binding by quenching of intrinsic tryptophan fluorescence; details: for Qmax: quenching caused by the varied ligand
PDHK2-wt = PDHK2-wt (Rattus norvegicus, UniProt Q64536); test: as above
[2] = target: L2 binding to PDHK2-N247Q (Rattus norvegicus, UniProt Q64536, N255Q); test: GST-L2 pull-down; details: PDHK2-N247Q (cannot bind nucleotides); nucleotides 10 mM each
PDHK2-Y320F bound to L2 = test: GST-L2 pull-down; assay type: binding, rat; details: for effect on amount of kinase bound to L2: nucleotide 0.5 mM
PDHK2-T302A [3] = target: T2, PDHK2-T302A (Rattus norvegicus, UniProt Q64536, T310A); test: ATP, ADP and DCA binding by quenching of intrinsic tryptophan fluorescence
PDHK2-T302A [4] = target: T2, PDHK2-T302A; test: Isothermal titration calorimetry of L2 binding; details: ITC, 10 mM ATP
PDHK2-R250A = PDHK2-R250A (Rattus norvegicus, UniProt Q64536, R258A); test: ATP, ADP and DCA binding by quenching of intrinsic tryptophan fluorescence
wild-type PDHK2 [5] = target: T3, wild-type PDHK2 (Rattus norvegicus, UniProt Q64536); test: biochemical
PDHK2-Y320F [6] = target: T1, PDHK2-Y320F; test: Kinase activity assay; assay type: biochemical; details: standard phosphorylation assay
wild-type PDHK2 [7] = target: T3, wild-type PDHK2; details: control, wide range of concentrations
[8] = PDHK2-wt, fixed ligand DCA (0.5 mM)
[9] = PDHK2-wt, no fixed ligand, 25 °C

SMILES: Nc1ncnc2c1ncn2[C@@H]1O[C@H](COP(=O)(O)OP(=O)(O)O)[C@@H](O)[C@H]1O [ADP]
increase in affinity for ADP by DCA (factor) (PDHK2-Y320F [1]; 0.5 mM DCA): 3.5
Kd (PDHK2-Y320F [1]; fixed ligand DCA (0.5 mM)): 2.5 ± 0.2 µM
nH (PDHK2-Y320F [1]; fixed ligand DCA (0.5 mM)): 1.9 ± 0.1
Qmax (PDHK2-Y320F [1]; fixed ligand DCA (0.5 mM)): 37 ± 1%
Qmax (extrapolated maximal quenching) (PDHK2-Y320F [1]; no fixed ligand): 24 ± 1%
nH (Hill coefficient) (PDHK2-Y320F [1]; no fixed ligand): 1.4 ± 0.1
Kd (PDHK2-Y320F [1]; no fixed ligand, 25 °C): 8.9 ± 0.1 µM
Kd (PDHK2-wt; [8]): 2 ± 0.1 µM
nH (PDHK2-wt; [8]): 2.2 ± 0.1
Qmax (PDHK2-wt; PDHK2-wt, fixed ligand DCA (0.5 mM), quenching caused by the varied ligand): 39 ± 1%
Qmax (extrapolated maximal quenching) (PDHK2-wt; PDHK2-wt, no fixed ligand): 31 ± 1%
nH (Hill coefficient) (PDHK2-wt; PDHK2-wt, no fixed ligand): 1.5 ± 0.2
Kd (PDHK2-wt; [9]): 10.6 ± 0.5 µM
increase in affinity for ADP in the presence of DCA (PDHK2-wt; wild-type PDHK2, 0.5 mM DCA): approximately 5 times
effect on L2 binding [2]: did not exert any nonspecific effects
effect on amount of kinase bound to L2 (PDHK2-Y320F bound to L2): significant decrease

SMILES: Nc1ncnc2c1ncn2[C@@H]1O[C@H](COP(=O)(O)OP(=O)(O)OP(=O)(O)O)[C@@H](O)[C@H]1O [ATP]
decrease in affinity relative to wild-type PDHK2 (PDHK2-T302A [3]): more than 20 fold
Qmax (extrapolated maximal quenching) (PDHK2-T302A [3]; no fixed ligand): 23 ± 1%
nH (Hill coefficient) (PDHK2-T302A [3]; no fixed ligand): 1.5 ± 0.1
Kd (PDHK2-T302A [3]; no fixed ligand, 25 °C): 60 ± 1 µM
Qmax (extrapolated maximal quenching) (PDHK2-Y320F [1]; no fixed ligand): 32 ± 1%
nH (Hill coefficient) (PDHK2-Y320F [1]; no fixed ligand): 2.4 ± 0.1
Kd (PDHK2-Y320F [1]; no fixed ligand, 25 °C): 1.7 ± 0.1 µM
Qmax (extrapolated maximal quenching) (PDHK2-wt; PDHK2-wt, no fixed ligand): 37 ± 1%
nH (Hill coefficient) (PDHK2-wt; PDHK2-wt, no fixed ligand): 1.9 ± 0.1
Kd (PDHK2-wt; [9]): 2.5 ± 0.4 µM
effect on L2 binding (PDHK2-T302A [4]): little, if any, effect
decrease in affinity relative to wild-type PDHK2 (PDHK2-R250A): > 30 fold
Qmax (extrapolated maximal quenching) (PDHK2-R250A; no fixed ligand): 29 ± 1%
nH (Hill coefficient) (PDHK2-R250A; no fixed ligand): 1.0 ± 0.1
Kd (PDHK2-R250A; no fixed ligand, 25 °C): 80 ± 1 µM
effect on L2 binding [2]: did not exert any nonspecific effects
effect on amount of kinase bound to L2 (PDHK2-Y320F bound to L2): significant decrease

SMILES: O=C(O)C(Cl)Cl [DCA, dichloroacetate]
IC50 (wild-type PDHK2 [5]): ~690 µM
Kd (PDHK2-T302A [3]; Kd, fixed ligand ADP (50 μM)): 249 ± 9 µM
Kd (PDHK2-T302A [3]; Kd, fixed ligand ADP (500 μM)): 103 ± 1 µM
Kd (PDHK2-T302A [3]; Kd, no fixed ligand, 25 °C): 320 ± 20 µM
Kd (PDHK2-Y320F [1]; Kd, fixed ligand ADP (50 μM)): 33 ± 1 µM
Kd (PDHK2-Y320F [1]; Kd, no fixed ligand, 25 °C): 292 ± 10 µM
Qmax (PDHK2-Y320F [1]; fixed ligand ADP (50 μM)): 29 ± 1%
Kd (PDHK2-wt; Kd, PDHK2-wt, no fixed ligand, 25 °C): 226 ± 7 µM
Kd (PDHK2-R250A; Kd, fixed ligand ADP (50 μM)): 161 ± 4 µM
Kd (PDHK2-R250A; Kd, fixed ligand ADP (500 μM)): 59 ± 1 µM
Kd (PDHK2-R250A; Kd, no fixed ligand, 25 °C): 312 ± 25 µM
effect on kinase activity (PDHK2-Y320F [6]): neither of the mutant kinases displayed an effect of DCA that would significantly exceed that of sodium acetate; also recorded: did not display an appreciable inhibitory effect; also recorded: no appreciable effect
effect on L2 binding, added alone (PDHK2-Y320F bound to L2; DCA 1 mM alone): little, if any, influence
effect on L2 binding, in combination with ATP or ADP (PDHK2-Y320F bound to L2; DCA 1 mM with 0.5 mM ATP or ADP): potentiated the effects of adenine nucleotides

effect on kinase activity (wild-type PDHK2 [7]): slight decrease in PDHK2 activity
SMILES: CC(=O)[O-].[Na+] [sodium acetate]

Reference: PMC2568900 (Biochemistry, 2008)
